Assay results from patent publication US20150239889A1, “PYRAZOLOPYRIMIDINE COMPOUND” (MITSUBISHI TANABE PHARMA CORPORATION, priority 2012, published 2015).

How the values were obtained:
[1] = target: T1, human HIF-PHD2 (Homo sapiens, UniProt Q9GZT9); test: HIF-PHD inhibition assay (fluorescence polarization), human HIF-PHD2; format: biochemical; settings: 2-oxoglutaric acid 3.33 μmol/L
T1 construct: purchased CrystalGenomics Ltd
In short: (§1)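 Activity was derived as the fluorescence polarization (mP) after enzyme addition minus that measured before enzyme addition. Probe bore a 5′-fluoresceinamide (FAM) label with an aminocaproic acid (ACA) linker.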

[2] = target: T2, human HIF-PHD3 (Homo sapiens, UniProt Q9H6Z9); test: HIF-PHD inhibition assay (fluorescence polarization), human HIF-PHD3; format: biochemical; settings: 2-oxoglutaric acid 166 μmol/L
T2 construct: purchased CrystalGenomics Ltd
In short: as §1

T2 sequence (Q9H6Z9 whole entry): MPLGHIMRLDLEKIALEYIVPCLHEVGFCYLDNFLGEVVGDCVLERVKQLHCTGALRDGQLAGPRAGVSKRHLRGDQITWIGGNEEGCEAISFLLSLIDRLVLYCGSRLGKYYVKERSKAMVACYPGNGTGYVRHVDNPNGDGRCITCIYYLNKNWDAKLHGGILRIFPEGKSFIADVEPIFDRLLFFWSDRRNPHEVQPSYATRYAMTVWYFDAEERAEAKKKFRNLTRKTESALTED
T1 sequence (Q9GZT9 2-426 limits assumed): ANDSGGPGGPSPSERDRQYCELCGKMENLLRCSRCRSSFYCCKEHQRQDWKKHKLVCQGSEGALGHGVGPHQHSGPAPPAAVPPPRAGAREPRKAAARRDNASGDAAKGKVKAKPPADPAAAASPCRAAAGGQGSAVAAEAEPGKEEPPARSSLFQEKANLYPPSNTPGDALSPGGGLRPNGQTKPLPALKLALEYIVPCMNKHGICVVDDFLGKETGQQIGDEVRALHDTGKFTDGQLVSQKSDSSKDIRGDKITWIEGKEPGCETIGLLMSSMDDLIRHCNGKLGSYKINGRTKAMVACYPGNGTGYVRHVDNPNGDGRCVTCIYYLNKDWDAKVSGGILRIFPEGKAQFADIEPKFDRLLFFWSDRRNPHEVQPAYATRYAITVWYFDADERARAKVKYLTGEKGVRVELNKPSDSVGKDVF

## CCC(C)(C)Cn1ncc2nc(-n3cc(C(=O)O)cn3)nc(O)c21 [Example 492]
[1]
  IC50: 110 nM
[2]
  IC50: 440 nM

## C[C@@H](c1ccc(F)cc1Cl)n1ncc2nc(-n3cc(C(=O)O)cn3)nc(O)c21 [Example 252]
[1]
  IC50: 99 nM
[2]
  IC50: 630 nM

## O=C(O)c1cnn(-c2nc(O)c3c(cnn3CCCOc3ccc4c(c3)CCC4)n2)c1 [Example 195]
[1]
  IC50: 22 nM
[2]
  IC50: 460 nM

## CCC(c1ccc(C)c(Cl)c1)n1ncc2nc(-n3cc(C(=O)O)cn3)nc(O)c21 (single isomer, unassigned) [Example 349]
[1]
  IC50: 67 nM
[2]
  IC50: 390 nM

## CCCC(CCC)n1ncc2nc(-n3cc(C(=O)O)cn3)nc(O)c21 [Example 488]
[1]
  IC50: 59 nM
[2]
  IC50: 840 nM

## CC1CC(n2ncc3nc(-n4cc(C(=O)O)cn4)nc(O)c32)CC(C)(C)C1 (single isomer, unassigned) [Example 408]
[1]
  IC50: 38 nM
[2]
  IC50: 400 nM

## CC(C)C(c1ccc(F)c(F)c1)n1ncc2nc(-n3cc(C(=O)O)cn3)nc(O)c21 (single isomer, unassigned) [Example 359]
[1]
  IC50: 23 nM
[2]
  IC50: 340 nM

## Cc1nn(CC2CCCC2)c2c(O)nc(-n3cc(C(=O)O)cn3)nc12 [Example 229]
[1]
  IC50: 50 nM
[2]
  IC50: 2800 nM

## C[C@H](c1ccc(C(F)(F)F)c(F)c1)n1ncc2nc(-n3cc(C(=O)O)cn3)nc(O)c21 [Example 280]
[1]
  IC50: 62 nM
[2]
  IC50: 850 nM

## CC(c1cc(Cl)c(Cl)s1)n1ncc2nc(-n3cc(C(=O)O)cn3)nc(O)c21 (single isomer, unassigned) [Example 320]
[1]
  IC50: 18 nM
[2]
  IC50: 480 nM

## C[C@@H](c1cccc(Cl)c1F)n1ncc2nc(-n3cc(C(=O)O)cn3)nc(O)c21 [Example 279]
[1]
  IC50: 120 nM
[2]
  IC50: 560 nM

## Cc1nn(CCC2CCCCC2)c2c(O)nc(-n3cc(C(=O)O)cn3)nc12 [Example 231]
[1]
  IC50: 21 nM
[2]
  IC50: 470 nM

## O=C(O)c1cnn(-c2nc(O)c3c(cnn3CC3CCC(F)(F)CC3)n2)c1 [Example 143]
[1]
  IC50: 15 nM
[2]
  IC50: 1200 nM

## O=C(O)c1cnn(-c2nc(O)c3c(cnn3C3CCCCCC3)n2)c1 [Example 393]
[1]
  IC50: 41 nM
[2]
  IC50: 310 nM

## O=C(O)c1cnn(-c2nc(O)c3c(cnn3C(c3cccc(Cl)c3)C3CC3)n2)c1 (stereo not drawn) [Example 374]
[1]
  IC50: 51 nM
[2]
  IC50: 630 nM

## C[C@@H](C1CCN(c2ccc(OC(F)(F)F)cc2)CC1)n1ncc2nc(-n3cc(C(=O)O)cn3)nc(O)c21 [Example 433]
[1]
  IC50: 31 nM
[2]
  IC50: 540 nM

## CC(C)C(c1ccc(F)cc1)n1ncc2nc(-n3cc(C(=O)O)cn3)nc(O)c21 (stereo not drawn) [Example 354]
[1]
  IC50: 140 nM
[2]
  IC50: 680 nM

## Cn1nc(C2CCCCC2)c2nc(-n3cc(C(=O)O)cn3)nc(O)c21 [Example 501]
[1]
  IC50: > 300 nM
[2]
  IC50: > 3000 nM

## CC(C)n1ncc2nc(-n3cc(C(=O)O)cn3)nc(O)c21 [Example 486]
[1]
  IC50: 120 nM
[2]
  IC50: 2200 nM

## CC(C)(C)Cn1nc(F)c2nc(-n3cc(C(=O)O)cn3)nc(O)c21 [Example 499]
[1]
  IC50: 130 nM
[2]
  IC50: 760 nM

## CC(c1cc(F)cc(Cl)c1)n1ncc2nc(-n3cc(C(=O)O)cn3)nc(O)c21 (single isomer, unassigned) [Example 306]
[1]
  IC50: 62 nM
[2]
  IC50: 450 nM

## CC1CCCC(n2ncc3nc(-n4cc(C(=O)O)cn4)nc(O)c32)C1 (single isomer, unassigned) [Example 401]
[1]
  IC50: 48 nM
[2]
  IC50: 1200 nM

## CCC(c1cc(F)cc(Cl)c1)n1ncc2nc(-n3cc(C(=O)O)cn3)nc(O)c21 (single isomer, unassigned) [Example 340]
[1]
  IC50: 16 nM
[2]
  IC50: 300 nM

## CC1(C)CC(=O)N(c2ccc(Cn3ncc4nc(-n5cc(C(=O)O)cn5)nc(O)c43)cc2)C1 [Example 420]
[1]
  IC50: 62 nM
[2]
  IC50: 490 nM

## CC1CC(n2ncc3nc(-n4cc(C(=O)O)cn4)nc(O)c32)CC(C)(C)C1 (single isomer, unassigned) [Example 410]
[1]
  IC50: 42 nM
[2]
  IC50: 430 nM

## Cc1cc(C(C)n2ncc3nc(-n4cc(C(=O)O)cn4)nc(O)c32)ccc1Cl (single isomer, unassigned) [Example 294]
[1]
  IC50: 22 nM
[2]
  IC50: 470 nM

## CC[C@@H](c1cccc(Cl)c1)n1ncc2nc(-n3cc(C(=O)O)cn3)nc(O)c21 [Example 343]
[1]
  IC50: 92 nM
[2]
  IC50: 610 nM

## C[C@@H](c1cccc(F)c1)n1nc(C2CC2)c2nc(-n3cc(C(=O)O)cn3)nc(O)c21 [Example 458]
[1]
  IC50: > 300 nM
[2]
  IC50: 1100 nM

## O=C(O)c1cnn(-c2nc(O)c3c(cnn3Cc3ccc(-c4ccc(C(F)(F)F)cc4Cl)cc3)n2)c1 [Example 73]
[1]
  IC50: 31 nM
[2]
  IC50: 270 nM

## Cn1nc(Cc2ccccc2)c2nc(-n3cc(C(=O)O)cn3)nc(O)c21 [Example 503]
[1]
  IC50: > 300 nM
[2]
  IC50: > 3000 nM

## C[C@@H](c1cc(F)ccc1F)n1nc(C2CC2)c2nc(-n3cc(C(=O)O)cn3)nc(O)c21 [Example 461]
[1]
  IC50: 230 nM
[2]
  IC50: 1600 nM

## O=C(O)c1cnn(-c2nc(O)c3c(cnn3C[C@H]3CCN(c4cccc(Cl)c4)C3)n2)c1 [Example 430]
[1]
  IC50: 19 nM
[2]
  IC50: 240 nM

## CCC(c1ccc(C)cc1)n1ncc2nc(-n3cc(C(=O)O)cn3)nc(O)c21 (single isomer, unassigned) [Example 329]
[1]
  IC50: 120 nM
[2]
  IC50: 590 nM

## C[C@@H](c1cccc(C(F)(F)F)c1)n1ncc2nc(-n3cc(C(=O)O)cn3)nc(O)c21 [Example 258]
[1]
  IC50: 38 nM
[2]
  IC50: 420 nM

## C[C@H](c1ccc(Cl)c(F)c1)n1ncc2nc(-n3cc(C(=O)O)cn3)nc(O)c21 [Example 270]
[1]
  IC50: 48 nM
[2]
  IC50: 440 nM

## CC[C@@H](c1ccc(OC(F)(F)F)c(Cl)c1)n1ncc2nc(-n3cc(C(=O)O)cn3)nc(O)c21 [Example 353]
[1]
  IC50: 14 nM
[2]
  IC50: 490 nM

## O=C(O)c1cnn(-c2nc(O)c3c(cnn3C(c3ccc(F)cc3)C3CC3)n2)c1 (single isomer, unassigned) [Example 367]
[1]
  IC50: 34 nM
[2]
  IC50: 350 nM

## CCC(c1ccc(Cl)cc1F)n1ncc2nc(-n3cc(C(=O)O)cn3)nc(O)c21 (single isomer, unassigned) [Example 351]
[1]
  IC50: 24 nM
[2]
  IC50: 210 nM

## CC(C)[C@H]1CC[C@H](C)[C@H](n2ncc3nc(-n4cc(C(=O)O)cn4)nc(O)c32)C1 [Example 405]
[1]
  IC50: 110 nM
[2]
  IC50: 460 nM

## Cc1cc(Cn2ncc3nc(-n4cc(C(=O)O)cn4)nc(O)c32)ccc1-c1ccccc1 [Example 92]
[1]
  IC50: 11 nM
[2]
  IC50: 50 nM

## O=C(O)c1cnn(-c2nc(O)c3c(cnn3[C@H]3CCN(c4ccc(Cl)c(Cl)c4)C3)n2)c1 [Example 438]
[1]
  IC50: 13 nM
[2]
  IC50: 140 nM

## C[C@@H](c1cc(Cl)cc(C(F)(F)F)c1)n1ncc2nc(-n3cc(C(=O)O)cn3)nc(O)c21 [Example 269]
[1]
  IC50: 42 nM
[2]
  IC50: 370 nM

## CCC(c1cc(F)cc(F)c1)n1ncc2nc(-n3cc(C(=O)O)cn3)nc(O)c21 (single isomer, unassigned) [Example 333]
[1]
  IC50: 46 nM
[2]
  IC50: 320 nM

## CC(c1cc(Cl)c(Cl)s1)n1ncc2nc(-n3cc(C(=O)O)cn3)nc(O)c21 (stereo not drawn) [Example 319]
[1]
  IC50: 85 nM
[2]
  IC50: 520 nM

## CCC(c1cccc(C(F)(F)F)c1)n1ncc2nc(-n3cc(C(=O)O)cn3)nc(O)c21 (single isomer, unassigned) [Example 342]
[1]
  IC50: 36 nM
[2]
  IC50: 480 nM
